Source: US20210205292A1, “INHIBITORS OF CREB-CBP INTERACTION FOR TREATMENT OF LEUKEMIA” (The Board of Trustees of the Leland Stanford Junior …, priority 2016, published 2021)

Tests used:
Format in all cases: cell-based
[1] = tested on: HL60 (Human promyelocytic leukemia cell line); assay: CellTiter Glo assay in HL60 cells; conditions: HL-60, second Table 4
Experimental: (§1) The compounds prepared according to the methods described herein and tested for activity in the CellTiter Glo assay in HL60 (Human promyelocytic leukemia cell line), Jukat (human T lymphocyte cell line for acute T cell leukemia) and/or Nalm6 (human ALL cell line) cells.
(§2) Compounds were prepared according to the methods described herein and tested for activity in the CellTiter Glo assay in HL60 (Human promyelocytic leukemia cell line), Jukat (human T lymphocyte cell line for acute Tcell leukemia) and/or Nalm6 (human ALL cell line) cells.

[2] = tested on: Jukat (human T lymphocyte cell line for acute T cell leukemia); assay: CellTiter Glo assay in Jukat cells; conditions: second Table 4
Experimental: as §1, §2

[3] = tested on: Nalm6 (human ALL cell line); assay: CellTiter Glo assay in Nalm6 cells; conditions: NALM-6, second Table 4
Experimental: as §1, §2

| SMILES | IC50 [1] [nM] | IC50 [2] [nM] | IC50 [3] [nM] |
| --- | --- | --- | --- |
| N#Cc1ccc(NC(=O)c2ccccc2O)cc1 [Compound 1] | 1000 to 10000 |  |  |
| N#Cc1ccc(NC(=O)c2cc(Br)ccc2O)cc1 [Compound 2] | < 1000 |  |  |
| N#Cc1ccc(NC(=O)c2cc(Cl)ccc2O)cc1 [Compound 3] | < 1000 |  |  |
| N#Cc1ccc(NC(=O)c2cc(F)ccc2O)cc1Cl [Compound 5] | < 1000 |  |  |
| Cc1cc(NC(=O)c2cc(F)ccc2O)ccc1C#N [Compound 6] | < 1000 |  |  |
| N#Cc1ccc(NC(=O)c2cc(Br)ccc2O)cc1Cl [Compound 7] | < 1000 |  |  |
| N#Cc1ccc(NC(=O)c2cc(F)ccc2O)cc1 [Compound 8] | < 1000 |  |  |
| N#Cc1ccc(NC(=O)c2ccc(Br)cc2O)cc1 [Compound 9] | < 1000 |  |  |
| N#Cc1ccc(NC(=O)c2ccc(F)cc2O)cc1 [Compound 10] | < 1000 |  |  |
| N#Cc1ccc(NC(=O)c2ccc(Br)cc2O)c(Cl)c1 [Compound 11] | < 1000 |  |  |
| N#Cc1ccc(NC(=O)c2ccc(Br)cc2O)c(F)c1 [Compound 12] | < 1000 |  |  |
| N#Cc1ccc(NC(=O)c2ccc(Br)cc2O)cc1Cl [Compound 13] | < 1000 |  |  |
| N#Cc1ccc(NC(=O)c2cc(-c3ccccc3)ccc2O)cc1 [Compound 15] | 1000 to 10000 | < 1000 | 1000 to 10000 |
| N#Cc1ccc(NC(=O)c2ccc(Cl)cc2O)cc1 [Compound 16] | < 1000 |  |  |
| N#Cc1ccc(NC(=O)c2ccc(C(F)(F)F)cc2O)cc1 [Compound 17] | < 1000 | < 1000 | < 1000 |
| Cc1ccc(NC(=O)c2cc(F)ccc2O)cc1C#N [Compound 19] | 1000 to 10000 |  |  |
| N#Cc1cc(NC(=O)c2cc(F)ccc2O)ccc1F [Compound 20] | 1000 to 10000 | 1000 to 10000 | 1000 to 10000 |
| Cc1cc(NC(=O)c2cc(F)ccc2O)ccc1[N+](=O)[O-] [Compound 21] | < 1000 |  |  |
| O=C(Nc1ccc([N+](=O)[O-])cc1Cl)c1cc(F)ccc1O [Compound 22] | < 1000 |  |  |

| SMILES | IC50 [1] [nM] | IC50 [2] [nM] | IC50 [3] [nM] |
| --- | --- | --- | --- |
| O=C(Nc1ccc([N+](=O)[O-])cc1Cl)c1cc(Cl)ccc1O [Compound 23] | < 1000 | < 1000 | < 1000 |
| CC(=O)Oc1ccc(Cl)cc1C(=O)Nc1ccc([N+](=O)[O-])cc1Cl [Compound 24] | < 1000 | < 1000 | < 1000 |
| Cc1cc(NC(=O)c2cc(Cl)ccc2O)ccc1[N+](=O)[O-] [Compound 25] | < 1000 |  |  |
| O=C(Nc1ccc(Br)c(Cl)c1)c1cc(F)ccc1O [Compound 26] | < 1000 |  |  |
| CC(=O)Oc1ccc(F)cc1C(=O)Nc1ccc(Br)c(Cl)c1 [Compound 27] | < 1000 | < 1000 |  |
| O=C(Nc1ccc(Br)c(Cl)c1)c1cc(Cl)ccc1O [Compound 30] | < 1000 |  |  |
| O=C(Nc1ccc(Cl)c(Cl)c1)c1cc(F)ccc1O [Compound 31] | < 1000 | < 1000 | 1000 to 10000 |
| O=C(Nc1ccc(F)c(F)c1)c1cc(F)ccc1O [Compound 32] | < 1000 | < 1000 | 1000 to 10000 |
| O=C(Nc1cccc(F)c1)c1cc(F)ccc1O [Compound 33] | 1000 to 10000 | 1000 to 10000 | 1000 to 10000 |
| Cc1cc(NC(=O)c2cc(F)ccc2O)ccc1Cl [Compound 34] | < 1000 |  |  |
| Cc1cc(NC(=O)c2cc(Cl)ccc2O)ccc1Cl [Compound 35] | < 1000 |  |  |
| Cc1cc(Cl)ccc1NC(=O)c1cc(F)ccc1O [Compound 36] | 1000 to 10000 |  |  |
| O=C(Nc1ccc(Cl)cc1F)c1cc(F)ccc1O [Compound 37] | 1000 to 10000 | < 1000 | 1000 to 10000 |
| O=C(Nc1ccc(Cl)cc1Cl)c1cc(F)ccc1O [Compound 38] | < 1000 | > 10000 | 1000 to 10000 |
| O=C(Nc1ccc(F)cc1F)c1cc(F)ccc1O [Compound 39] | 1000 to 10000 | 1000 to 10000 | 1000 to 10000 |
| O=C(Nc1cccc(F)c1F)c1cc(F)ccc1O [Compound 40] | 1000 to 10000 | 1000 to 10000 | 1000 to 10000 |
| O=C(Nc1cc(F)cc(F)c1)c1cc(F)ccc1O [Compound 41] | < 1000 |  |  |
| O=C(Nc1cc(Cl)cc(Cl)c1)c1cc(F)ccc1O [Compound 42] | < 1000 | < 1000 | 1000 to 10000 |
| O=C(Nc1cccc(Cl)c1)c1cc(F)ccc1O [Compound 43] | 1000 to 10000 | 1000 to 10000 | 1000 to 10000 |
